How the values were obtained:
[1] = Polluted soil experiment (Examples 4 to 7): 1,1-dichloroethylene concentration in polluted soil by GC-MS
From the text: (§1) FIG. 4 is a view showing an experiment facility used for effecting the method of decreasing nitrate nitrogen and volatile organic compounds in Example 4. A part (a) of FIG. 4 is a plan view of the experiment facility, and a part (b) of FIG. 4 is a side view thereof.
(§2) As shown in the part (a) of FIG. 4, the polluted soil 32 is provided approximately at the center of the experiment bath 34 so that it is surrounded by the experiment soil 33.
(§3) In Example 4, the concrete frame 31 in the form of square measure is a cube of 1 m square having open upper part, and artificial soil prepared by mixing kuroboku soil and loam in equivalent amounts was charged in the experiment bath 34 formed with the concrete frame 31 and allowed to stand outdoors (average temperature: 21° C.) for about 2 months.
(§4) Then, the surface of the artificial soil formed as described above was dug to form a hole in the form of cylinder having a diameter of 30 cm and a depth of 50 cm, and this hole was re-buried with the polluted soil 32.
(§5) The polluted soil was obtained by adding experiment materials (containing no nitrogen atom) such as fatty acids and alcohols of the present invention and comparative materials of conventional technologies used for comparison in an amount of 1 wt % to 1.2 ton of soil polluted with 1,1,1-trichloroethane and 1,1-dichloroethylene (containing about 1400 μg/L of […], about 50 μg/L of 1,1-dichloroethylene, by elution test according to Kankoku No. 46), and mixing kuroboku soil and loam in equivalent amounts uniformly.
(§6) To the polluted soil formed as described above was fed diammonium hydrogen phosphate having a concentration of 100 mg/L as a nutrient salt (nitrogen source) at a ratio of 140 L/day.
(§7) Under the above-mentioned conditions, the concentrations of 1,1,1-trichloroethane and 1,1-dichloroethylene in the polluted soil 32 were measured by gas chromatograph mass spectrometry 20 days after initiation of the experiment. Soils around the re-buried polluted soil 32 (soils on four corners A to D at a depth of 50 cm in FIG. 4) were sampled, and four-point average values of the total carbon concentration and total nitrogen concentration per soil dried weight were measured.
(§8) In the method of decreasing nitrate nitrogen and volatile organic compounds in Example 5, the same experiment facility (FIG. 4) as in Example 4 was used. Stearic acid was used as the decreasing agent such as fatty acids, alcohols and the like used in the present invention, and an iron powder having an average particle size of about 15 μm was added simultaneously with this stearic acid, to give polluted soil of compartment No. 1. In polluted soil of compartment No. 2, stearic acid and an aluminum powder having an average particle size of 180 μm were added in the same concentration as the polluted soil of compartment No. 1. The same experiment as in Example 4 was conducted on these polluted soils (compartment Nos. 1, 2).
(§9) In the method of decreasing nitrate nitrogen and volatile organic compounds in Example 6, the same experiment facility (FIG. 4) as in Example 4 was used. Beef tallow fatty acid was used as the decreasing agent such as fatty acids, alcohols and the like used in the present invention, and a bacteria previously cultured was inoculated to the soil and the same experiment as in Example 4 was conducted.
(§10) For obtaining the bacteria used in Example 6, 1,1,1-trichloroethane was controlled to 5000 μg/L, 1,1-dichloroethylene was controlled to 5000 μg/L, diammonium hydrogen phosphate was controlled to 800 mg/L and beef tallow fatty acid which was only carbon source was controlled to 0.5 wt % in soil collected at a point of 30 cm depth from the ground surface of agricultural land (tea field), and the medium was cultured at a temperature of 16° C. for 12 days.
(§11) In the method of decreasing nitrate nitrogen and volatile organic compounds in Example 7, the same experiment facility (FIG. 4) as in Example 4 was used. […]

[2] = Polluted soil experiment (Examples 4 to 7): 1,1,1-trichloroethane concentration in polluted soil by GC-MS
From the text: as §1, §2, §3, §4, §5, §6, §7, §8, §9, §10, §11

[3] = Artificial soil experiment (Example 1): materials mixed 1 wt % in kuroboku soil, analysis of water passed through the gravel layer; settings: water passed through soil with 1 wt % material, nitrate nitrogen solution 90 mg/L added 100 mL/day
Protocol: FIG. 1 is a sectional view showing an artificial soil experiment facility used for effecting a soil experiment in a method of decreasing nitrate nitrogen and volatile organic compounds in Example 1.
On each experiment bath 7, nozzles are placed for adding a nitrate nitrogen solution, and these nozzles are communicated with a pipe 6 in which the nitrate nitrogen solution flows.
The following experiments were conducted using the artificial soil experiment facility constituted as described above.
In the experiment bath 7, a gravel layer 3 and experiment soil 2 are placed. In each experiment soil 2, a carrot seedling 5 is planted.
The ground surface area of the experimental bath 7 was 11 m^2, and the soil depth of the experimental soil 2 was 1.4 m. Kuroboku soil was used as the experimental soil 2. Under this experiment soil 2, a gravel layer 3 is formed by placing gravels at a thickness of 20 cm from the bottom.
In 14 compartments of experiment layers 7, five carrot seedlings having a leaf length of about 14 cm were planted in each compartment, and a nitrate nitrogen solution of which nitrate nitrogen concentration had been previously controlled to 90 mg/L was added continuously at a rate of 100 mL/day using a metering pump. Of 14 compartments of experiment layers 7, in compartments Nos. 1 to 9, experiment materials of the present invention were mixed in soil, and in compartments Nos. 10 to 14, comparative materials were mixed in soil, before experiments.
The experiment soils 2 in each test district and comparative district were made by uniformly mixing experiment materials (fatty acid, alcohol and the like) and comparative materials (materials used in conventional technologies) in a soil dry weight ratio of 1 wt %, previously.
In the artificial soil experiment facility constituted as described above, water passed through the gravel layer 3 was collected, and analyses of the nitrate nitrogen concentration, ammonia nitrogen concentration and total carbon concentration after 65 days were conducted according to JIS methods.

[4] = Artificial groundwater experiment (Example 2): 800 g hydrogen donor added from artificial well, analysis of sampled groundwater; settings: 800 g material, nitrate nitrogen solution 40 mg/L added 12 mL/day
From the text: FIG. 2 is a sectional view showing an artificial groundwater experiment facility used for effecting a groundwater experiment in the method of decreasing nitrate nitrogen and volatile organic compounds in Example 2.
In the experiment bath 17 surrounded by the concrete block frame 11 in the artificial groundwater experiment facility, the ground surface area of the experiment soil 12 was 18 m^2, and the soil depth was 6.0 m. Under this experiment soil 12, a gravel layer 13 is formed at a thickness of 50 cm. A mixture of kuroboku soil and loam at a ratio of about 6:4 was used as the experiment soil 12.
In the experiment bath 17, an artificial well 14 constituted of a vinyl chloride tube having a diameter of 20 cm is provided. This artificial well 14 is provided at a position 0.5 m from the inner wall surface at one end of the experiment bath 17 (this inner wall surface is standard position) and has a depth of about 6 m, and reaches to the gravel layer 13. Further, a nitrate nitrogen solution addition piper 16 for adding a nitrate nitrogen solution is buried at a position 2 m from the inner wall surface (standard position) of the experiment bath 17 in the artificial groundwater experiment facility, extending to a position 4 m depth from the ground surface. A measurement water incorporating port 15 communicating to outside is provided on another inner wall surface opposite to the standard surface, one inner wall surface. This measurement water incorporating port 15 is formed at a position 50 cm from the bottom (corresponding to the uppermost part of the gravel layer 13), and provided for sampling measurement water which is groundwater.
The following experiments were conducted in 12 compartments using the artificial soil experiment facility constituted as described above.
In each experiment bath 17, a nitrate nitrogen solution of which nitrate nitrogen concentration had been previously controlled to 40 mg/L was added continuously from the end of the nitrate nitrogen solution adding pipe 16 (position 4 m from the ground surface) at a rate of 12 mL/day using a metering pump.
Under the above-mentioned conditions, movement of artificial groundwater is estimated to about 6.5 m/year. The present inventors have added 800 g of each hydrogen donor from the artificial well 14 in each test district and each comparative district. 30 days after initiation of the test, water was sampled from the measurement water incorporating port 15 formed at a position 50 cm from the bottom (corresponding to the uppermost part of gravel layer), and analyses of the nitrate nitrogen concentration, ammonia nitrogen concentration and total carbon concentration of the collected water were conducted according to JIS methods.

[5] = Example 7, nutrient salt containing nitrogen not added
[6] = Example 4, 1 wt % material in polluted soil (about 50 μg/L initially), diammonium hydrogen phosphate fed
[7] = Example 4, 1 wt % material in polluted soil (about 1400 μg/L initially), diammonium hydrogen phosphate fed

Compound: CC(=O)O [Acetic acid, reference compound]
- 1,1-dichloroethylene concentration after 20 days [1, 5]: 41 µg/L
- 1,1,1-trichloroethane concentration after 20 days [2, 5]: 1350 µg/L

Compound: CCCCCCCCCCCCCCCCCCCCCCO [Behenyl alcohol]
- 1,1-dichloroethylene concentration after 20 days [1, 6]: 21 µg/L
- 1,1,1-trichloroethane concentration after 20 days [2, 7]: 920 µg/L

Compound: CCCCCCCC(=O)O [Caprylic acid, reference compound]
- 1,1-dichloroethylene concentration after 20 days [1, 6]: 16 µg/L
- 1,1,1-trichloroethane concentration after 20 days [2, 7]: 960 µg/L

Compound: CCCCCCCCCCCCCCCCOC(=O)CCCCCCCCCCCCCCC [Cetyl palmitate]
- Nitrate nitrogen concentration after 65 days [3]: 20 mg/L

Compound: CCCCCCCCCCCCCCCCCC(=O)O[C@H]1CC[C@@]2(C)C(=CC[C@H]3[C@@H]4CC[C@H]([C@H](C)CCCC(C)C)[C@@]4(C)CC[C@@H]32)C1 [Cholesterol stearate]
- 1,1-dichloroethylene concentration after 20 days [1, 6]: 20 µg/L
- 1,1,1-trichloroethane concentration after 20 days [2, 7]: 650 µg/L

Compound: CCCCCCCCCCCCCCCCCCC(=O)CCCCCCCCCCCCCCCCCC [Distearyl ketone]
- 1,1-dichloroethylene concentration after 20 days [1, 5]: 20 µg/L
- 1,1,1-trichloroethane concentration after 20 days [2, 5]: 830 µg/L

Compound: CCCCCCCCCCCCCCCCCCNCCCCCCCCCCCCCCCCCC [Distearylamine]
- 1,1-dichloroethylene concentration after 20 days [1, 5]: 24 µg/L
- 1,1,1-trichloroethane concentration after 20 days [2, 5]: 910 µg/L

Compound: CCO [Ethanol, reference compound]
- 1,1-dichloroethylene concentration after 20 days [1, 6]: 19 µg/L
- 1,1,1-trichloroethane concentration after 20 days [2, 7]: 1100 µg/L

Compound: CC(O)C(=O)O (stereo not drawn) [Lactic acid, reference compound]
- 1,1-dichloroethylene concentration after 20 days [1, 6]: 20 µg/L
- 1,1,1-trichloroethane concentration after 20 days [2, 7]: 870 µg/L

Compound: OC[C@H]1O[C@@H](O[C@H]2[C@H](O)[C@@H](O)C(O)O[C@@H]2CO)[C@H](O)[C@@H](O)[C@H]1O (stereo partly drawn) [Lactose, reference compound]
- Nitrate nitrogen concentration after 65 days [3]: 41 mg/L

Compound: CO [Methanol, reference compound]
- 1,1-dichloroethylene concentration after 20 days [1, 5]: 49 µg/L
- 1,1,1-trichloroethane concentration after 20 days [2, 5]: 1330 µg/L

Compound: CCCCCCCCCCCCCCOC(=O)CCCCCCCCCCCCC [Myristyl myristate]
- Nitrate nitrogen concentration after 30 days [4]: 5 mg/L

Compound: CCCCCCCCCCCCCCN [Myristylamine]
- 1,1-dichloroethylene concentration after 20 days [1, 5]: 29 µg/L
- 1,1,1-trichloroethane concentration after 20 days [2, 5]: 940 µg/L

Compound: CCCCCCCC/C=C\CCCCCCCC(=O)O [Oleic acid, reference compound]
- 1,1-dichloroethylene concentration after 20 days [1, 6]: 21 µg/L
- 1,1,1-trichloroethane concentration after 20 days [2, 7]: 690 µg/L

Compound: CCCCCCCCCCCCCCCCCC(=O)O [Stearic acid]
- Nitrate nitrogen concentration after 65 days [3]: 22 mg/L
- 1,1-dichloroethylene concentration after 20 days [1, 6]: 24 µg/L
- 1,1,1-trichloroethane concentration after 20 days [2, 7]: 820 µg/L

Compound: CCCCCCCCCCCCCCCCCC(N)=O [Stearic amide]
- 1,1-dichloroethylene concentration after 20 days [1, 5]: 24 µg/L
- 1,1,1-trichloroethane concentration after 20 days [2, 5]: 790 µg/L

Compound: CCCCCCCCCCCCCCCCCCO [Stearyl alcohol]
- Nitrate nitrogen concentration after 30 days [4]: 4 mg/L

Compound: CC(=O)O.CCCCCCCCCCCCCCCCCCN [Stearylamine acetate]
- 1,1-dichloroethylene concentration after 20 days [1, 5]: 28 µg/L
- 1,1,1-trichloroethane concentration after 20 days [2, 5]: 900 µg/L

Compound: CCCCCCCCCCCCO [lauryl alcohol]
- Nitrate nitrogen concentration after 65 days [3]: 18 mg/L

Compound: Myristilate
- Nitrate nitrogen concentration after 30 days [4]: 9 mg/L

Compound: Oleic monoglyceride
- 1,1-dichloroethylene concentration after 20 days [1, 6]: 19 µg/L
- 1,1,1-trichloroethane concentration after 20 days [2, 7]: 700 µg/L

Compound: Polyoxyethylene octylphenyl ether
- 1,1-dichloroethylene concentration after 20 days [1, 6]: 24 µg/L
- 1,1,1-trichloroethane concentration after 20 days [2, 7]: 820 µg/L

Compound: Sorbitan distearate
- Nitrate nitrogen concentration after 65 days [3]: 14 mg/L

Compound: Sorbitan monopalmitate
- Nitrate nitrogen concentration after 30 days [4]: 5 mg/L

Compound: Tetraglyceryl pentastearate
- Nitrate nitrogen concentration after 30 days [4]: 8 mg/L

Reference: patent US7030287B2, “Method of decreasing nitrate nitrogen and volatile organic compound in soil and groundwater” (Matsushita Electric Industrial Co., Ltd., priority 2001, dated 2006)
